How the values were obtained:
[1] = test system: HER2 wild-type Ba/F3 cells; experiment: Ba/F3 cell proliferation assay, HER2 wild-type; format: cell-based; details: Mus musculus, BaF3, 72 h, Celltiter-Glo cell viability; for GI50: read-out: HER2 WT/BaF3 GI50; for Emax: read-out: HER2 WT/BaF3 Imax %
Protocol: (§1) EGFR wild-type Ba/F3 cells (Cobioer, Cat. No. CBP73110) in the logarithmic growth phase were seeded into a 96-well plate at 2.5×10^3 cells/[…] in a growth medium, and HER2 wild-type Ba/F3 cells (Cobioer, Cat. No. CBP73110) or HER2 A775_G776insYVMA mutant Ba/F3 (Cobioer, Cat. No. CBP73184) in the logarithmic growth phase were seeded into a 96-well plate at 5×10^3 cells/100 μL in a growth medium.
(§2) The plates were placed in a cell incubator at 37° C. overnight. The compound diluted in 3-fold gradient with a medium was added to the plates at 100 μL/well the next day. All treatments were performed in triplicate. The plates were cultured in the cell incubator at 37° C. for another 72 h. Celltiter-Glo Luminescent cell viability assay was performed.
(§3) The cell proliferation rate corresponding to each well was calculated according to the following formula: proliferation %=(test compound well G3-GO average value)/(DMSO control well G3 average value -GO average value)×100. According to the corresponding proliferation rate and concentration of each gradient concentration well, a gradient curve of cell proliferation was fitted using Prism Graphpad software, and GI50 (GI50 is defined as the concentration of a compound corresponding to the cell proliferation inhibition rate of 50%) of the compound was calculated.

[2] = in vivo; design: species or system C57 mice; details: female, C57, mouse, po, 50 mg/kg
Protocol: C57 mice were used as test animals. After intragastric (i.g.) administration of example compounds to C57 mice, the plasma concentrations at different time points were measured by the LC/MS/MS method. The pharmacokinetic behavior of the compounds of the present disclosure in C57 mice was studied and their pharmacokinetic profiles were evaluated.
Twenty-seven C57 mice, female, were evenly divided into 3 groups, provided by Beijing HFK Bioscience Co., Ltd., and intragastrically administered.
A certain amount of example compound was weighed out and dissolved in 5% DMSO+20% PEG400+70% (10% TPGS)+5% (1% HPMC K100LV) to prepare a 2.5 mg/mL colorless clear solution.
The dose administered was 50 mg/kg, and the volume was 20.0 mL/kg.
(§4) 0.1-mL blood samples were collected from the orbit before administration and 0.25 h, 0.5 h, 1.0 h, 2.0 h, 4.0 h, 6.0 h, 8.0 h, 11.0 h, and 24.0 h after administration. The blood samples were placed into EDTA-K2 anticoagulation test tubes and centrifuged at 10,000 rpm for 2 min (4° C.), and plasma was separated within 1 h and stored at −20° C. before analysis. The procedure starting from the blood collection to the centrifugation was performed under ice-bath conditions. Access to food was given 2 hours after administration.
After administration of different concentrations of the test compounds, the plasma concentrations of the test compounds in C57 mice were determined: plasma samples (50 μL) were collected from the C57 mice at various time points after administration, and 25 μL of labetalol (1 μg/mL) and 450 μL of acetonitrile were added to each of the samples.
The mixtures were vortexed and centrifuged at 3700 rpm for 10 min. 0.1 μL of the supernatant was taken for LC/MS/MS analysis.

[3] = in vivo; design: species or system SD rats; details: both sexes, SD, rat, po, 50 mg/kg
Protocol: SD rats were used as test animals. After intragastric (i.g.) administration of example compounds to SD rats, the plasma concentrations at different time points were measured by the LC/MS/MS method. The pharmacokinetic behavior of the compound of the present disclosure in SD rats was studied, and its pharmacokinetic profiles were evaluated.
Four SD rats, of which half were male and half female, were provided by Vital River Laboratory Animal Technology Co., Ltd. The animals were fasted overnight and then intragastrically dosed.
A certain amount of example compound was weighed out and dissolved in 5% DMSO+20% PEG400+70% (10% TPGS)+5% (1% HPMC K100LV) to prepare a 5 mg/mL colorless clear solution.
The dose administered was 50 mg/kg, and the volume was 10.0 mL/kg.
as §4, with “0.2-mL blood” for “0.1-mL blood”, “for 1” for “for 2”, “stored in dry ice” for “stored at −20° C.”
After administration of different concentrations of the test compounds, the plasma concentration of the test compound in SD rats was determined: plasma samples (50 μL) were collected from the SD rats at various time points after administration, and 25 μL of camptothecin (1 μg/mL) and 450 μL of acetonitrile were added to each of the samples. The mixtures were vortexed and centrifuged at 3700 rpm for 10 min. 0.1 μL of the supernatant was taken for LC/MS/MS analysis.

[4] = test system: EGFR wild-type Ba/F3 cells; experiment: Ba/F3 cell proliferation assay, EGFR wild-type; format: cell-based; details: 72 h, Celltiter-Glo cell viability; for GI50: Mus musculus, BaF3, read-out: EGFR WT/BaF3 GI50
Protocol: as §1, §2, §3

[5] = test system: HER2 A775_G776insYVMA mutant Ba/F3; experiment: Ba/F3 cell proliferation assay, HER2 A775_G776insYVMA mutant; format: cell-based; details: Mus musculus, BaF3, 72 h, Celltiter-Glo cell viability; for GI50: read-out: HER2 A775_G776 ins YVMA/BaF3 GI50; for Emax: read-out: HER2 A775_G776 ins YVMA/BaF3 Imax %
Protocol: as §1, §2, §3

Row | SMILES | GI50 [1] [nM] | Emax [1] [%] | AUC(0-t) [2] [ng·h/mL] | CL/F [2] [mL/min/kg] | Cmax [2] [ng/mL] | Vd/F [2] [L/kg] | half-life [2] [h] | AUC(0-t) [3] [ng·h/mL] | CL/F [3] [mL/min/kg] | Cmax [3] [ng/mL] | Vd/F [3] [L/kg] | half-life [3] [h] | EGFR WT/BaF3 Imax % [4] [%] | GI50 [4] [nM] | GI50 [5] [nM] | Emax [5] [%]
1 | C=CC(=O)N1[C@@H]2CC[C@H]1C[C@@H](Oc1ccc3ncnc(Nc4ccc(Oc5ccn6ncnc6c5)c(C)c4F)c3c1)C2 [Example 10, 1-(endo-3-((4-((4-([1,2,4]Triazolo[1,5-a]pyridin-7-yloxy)-2-fluoro-3-methylphenyl)amino)quinazolin-6-yl)oxy)-8-azabicyclo[3.2.1]octan-8-yl)prop-2-en-1-one] | 9.3 | 100 | 31200 | 26.5 | 14000 | 3.75 | 1.6 | 70800 | 14.7 | 19300 | 2.95 | 2.3 | 100 | 2840 | 10.3 | 100
2 | C=CC(=O)N1[C@@H]2CC[C@H]1C[C@@H](Oc1ccc3ncnc(Nc4ccc(Oc5ccc6c(c5)ncn6C)c(C)c4F)c3c1)C2 [Example 18, 1-(endo-3-((4-((2-Fluoro-3-methyl-4-((1-methyl-1H-benzo[d]imidazol-5-yl)oxy)phenyl)amino)quinazolin-6-yl)oxy)-8-azabicyclo[3.2.1]octan-8-yl)prop-2-en-1-one] | 17.7 | 100 | 44900 | 18.5 | 12700 | 3.93 | 2.5 | – | – | – | – | – | 100 | 2130 | 23.6 | 100
3 | C=CC(=O)N1[C@@H]2CC[C@H]1C[C@H](Oc1cc3c(Nc4ccc(Oc5ccn6ncnc6c5)c(C)c4)ncnc3cn1)C2 [Example 26, 1-(exo-3-((4-((4-([1,2,4]Triazolo[1,5-a]pyridin-7-yloxy)-3-methylphenyl)amino)pyrido[3,4-d]pyrimidin-6-yl)oxy)-8-azabicyclo[3.2.1]octan-8-yl)prop-2-en-1-one] | 9.2 | 100 | 32100 | 26 | 11300 | 2.88 | 1.3 | – | – | – | – | – | 100 | 1630 | 23.4 | 100

Source: patent US20250206760A1, “NITROGEN-CONTAINING HETEROCYCLIC COMPOUND, PREPARATION METHOD THEREFOR, AND PHARMACEUTICAL APPLICATION THEREOF” (Jiangsu Hengrui Pharmaceuticals Co., Ltd., priority 2022, published 2025)
